Experimental data: patent US20260091123A1, “COMBINATION OF ANTI-B7-H3 ANTIBODY-DRUG CONJUGATE AND ATR INHIBITOR OR ATM INHIBITOR” (DAIICHI SANKYO COMPANY, LIMITED, priority 2023, published 2026)

Legend:
[1] = test system: human prostate carcinoma epithelial cell line, 22Rv1; assay: In vivo antitumor activity, combination with ATM inhibitor, 22Rv1 xenograft (Test Example 5); set-up: species or system mice; settings: day 29
Method: All animal experiments were performed in accordance with the in-house guidelines of the Institutional Animal Care and Use Committee of Daiichi Sankyo Co., Ltd. The human prostate carcinoma epithelial cell line, 22Rv1 was purchased from American Type Culture Collection (ATCC) and cultured in RPMI 1640 Medium (ATCC modification) (Thermo Fisher Scientific) supplemented with 10% heat-inactivated fetal bovine serum (FBS, cytiva) at 37° C. in a humidified 5% CO2 atmosphere. On the day of cancer cell inoculation, 22Rv1 cells were trypsinized, washed with D-PBS, and then resuspended in D-PBS at a concentration of 5×10^7 cells/mL. Castrated male NSG mice (NOD.Cg-Prkdc^scid Il2rg^tm1Wj1/SzJ, 6 weeks of age, The Jackson Laboratory Japan, Inc.) were subcutaneously inoculated with 22Rv1 cells (5×10^6 cells/mouse) into the right flank. […] Vehicle control • Group 2: AZD1390 20 mg/kg • Group 3: […] A (10 mmol/L histidine buffer [pH5.9] containing 9% sucrose and 0.02% polysorbate 20) to prepare a 0.3 mg/mL dosing solution. To prepare a 2.0 mg/mL dosing solution, AZD1390 was dissolved in Soln. […] The volume of each dosing solution to be administered was calculated from the individual body weight measured on the day of dosing. […] Tumor length and tumor width were measured with a digital caliper. Tumor volume and tumor growth inhibition (TGI) were calculated by the following formulas: […] […]

[2] = test system: human prostate carcinoma epithelial cell line, 22Rv1; assay: In vivo antitumor activity, combination with ATR inhibitor, 22Rv1 xenograft (Test Example 4); set-up: species or system mice; settings: day 24
Method: All animal experiments were performed in accordance with the in-house guidelines of the Institutional Animal Care and Use Committee of Daiichi Sankyo Co., Ltd. […] Vehicle control • Group 2: AZD6738 25 mg/kg • Group 3: […] A (10 mmol/L histidine buffer [pH5.9] containing 9% sucrose and 0.02% polysorbate 20) to prepare a 0.3 mg/mL dosing solution. […] Then, propylene glycol (40% [v/v] of total volume of the dosing solution) was added to the solution. After mixing with a magnetic stirrer well, water for injection (50% [v/v] of total volume of the dosing solution) was added to the solution, and then the solution was further mixed well with a magnetic stirrer. The volume of each dosing solution to be administered was calculated based on the individual body weight measured on the day of dosing. Soln. […] Soln. […] Tumor length and tumor width were measured with a digital caliper. Tumor volume and tumor growth inhibition (TGI) were calculated by the following formulas: […] Dunnett's test was used to compare tumor volumes in monotherapy groups with those in the vehicle control and to compare tumor volumes in monotherapy groups with those in the combination group. […] The following calculation of TGI and statistical analyses were performed using data except for the excluded mouse in Group 4.

Structure (SMILES)	tumor growth inhibition (TGI) ([1]; 22Rv1 in castrated male NSG mice, AZD1390 20 mg/kg orally, conjugate (1) 3 mg/kg iv days 0 and 14)	tumor growth / antitumor activity compared with the vehicle control ([1]; monotherapies, Dunnett's test)	tumor growth inhibition (TGI) ([2]; 22Rv1 in castrated male NSG mice, AZD6738 25 mg/kg orally twice a day, conjugate (1) 3 mg/kg iv days 0 and 15)	tumor growth compared with the vehicle control ([2]; monotherapies, Dunnett's test)
CC(C)n1c(=O)n(C)c2cnc3cc(F)c(-c4ccc(OCCCN5CCCCC5)nc4)cc3c21 [AZD1390]	14%	no statistically significant difference in antitumor activity	–	–
C[C@@H]1COCCN1c1cc(C2([S@](C)(=N)=O)CC2)nc(-c2cc[nH]c3nccc2-3)n1 [AZD6738]	–	–	29%	significantly inhibited tumor growth
